The results in this text go back to patent US11548903B2, “Bicyclic thiazine and oxazine derivatives as beta-secretase inhibitors and methods of use” (AMGEN INC., priority 2016, dated 2023).

Like-named read-outs stand apart in the source and are kept apart here.

Assay [1] deals with human recombinant BACE1 (Homo sapiens (Human), UniProt P56817). In words: In vitro enzymatic BACE1 FRET assay. It is filed as biochemical. Particulars: read-out: BACE1 Enzyme IC50. On the procedure:
(§1) In Vitro Enzymatic BACE1 and BACE2 FRET (Fluorescence Resonance Energy Transfer) Assays […] These recombinant proteins were further purified using Ni-NTA affinity chromatography (Qiagen). […] The assay was effectively started by the addition of FRET substrate (50 nM) and the combination was incubated for one hour. The FRET assay was terminated by the addition of tris buffer, which raised the pH to neutrality, and the fluorescence was determined. The FRET substrate was a peptide with commercially available fluorophore and quencher, on opposite sides of the BACE cleavage site. The specific FRET substrate used in this assay was made by Amgen in-house. Commercially available FRET substrates, for example, the FRET substrate offered with the BACE1 FRET Assay Kit sold by ThermoFisher Scientific (Catalog Number P2985), may be used in this assay with the appropriate modifications, which are within the purview of the ability of a person with ordinary skill in the art. Proteolytic cleavage of the FRET substrate released quenching of fluorescence (excitation 488 nm and emission 590 nm).

Assay [2] addresses Recombinant CatD (Homo sapiens (Human), UniProt P07339). In words: In vitro enzymatic Cathepsin D (CatD) FRET assay. Particulars: read-out: Cat D Enzyme IC50. It is filed as biochemical. On the procedure: In Vitro Enzymatic Cathepsin D (CatD) FRET Assay Recombinant CatD was expressed in CHO cells. The assay buffer for CatD was 0.05 M citrate pH 3.5, 10% DMSO final, 5 mM CHAPS. […] The assays was effectively started by the addition of different FRET substrates (20 nM for CatD) and the combination was incubated for one hour. The FRET assay was terminated with by addition of tris buffer, which raises the pH to neutrality, and the fluorescence was determined. The FRET substrate was a peptide with commercially available fluorophore and quencher, on opposite sides of the CatD cleavage site. The CatD substrate peptide sequence was based on sequence #1 of Table 1 from Gulnik et al., FEBS Lett. 413(2):379-384 (1997). Proteolytic cleavage of the FRET substrate released quenching of fluorescence (CatD excitation 500 nm and emission 580 nm). The in vitro CatD FRET assay data for each of the Examples is provided in Table 2, conducted by the first procedure described above. […] Thus, with this surprising selectivity profile, the compounds provided herein are believed to minimize, reduce or completely eliminate any risk of retinal atrophy and abnormal development of the eye and of the retinal pigmented epithelium as it relates to the normal function and activity of CatD.

For assay [3], the target named is human recombinant BACE2 (Homo sapiens (Human), UniProt Q9Y5Z0). In words: In vitro enzymatic BACE2 FRET assay. It is filed as biochemical. Particulars: read-out: BACE2 Enzyme IC50. On the procedure: as §1
Chain of human recombinant BACE2 (Q9Y5Z0 63-518): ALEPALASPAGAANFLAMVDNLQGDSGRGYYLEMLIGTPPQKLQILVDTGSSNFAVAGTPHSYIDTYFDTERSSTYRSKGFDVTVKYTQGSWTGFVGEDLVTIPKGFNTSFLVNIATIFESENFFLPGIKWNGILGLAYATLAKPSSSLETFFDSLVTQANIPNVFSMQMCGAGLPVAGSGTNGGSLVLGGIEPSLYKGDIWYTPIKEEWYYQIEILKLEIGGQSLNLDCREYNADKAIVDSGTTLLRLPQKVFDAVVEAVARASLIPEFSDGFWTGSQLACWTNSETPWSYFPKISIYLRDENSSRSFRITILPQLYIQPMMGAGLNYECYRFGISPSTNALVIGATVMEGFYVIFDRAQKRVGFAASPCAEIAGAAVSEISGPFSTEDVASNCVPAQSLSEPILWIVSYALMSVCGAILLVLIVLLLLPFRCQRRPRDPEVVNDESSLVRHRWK
In assay [4] the test system is BACE1 (Aβ40 from cells stably expressing Amyloid Precursor Protein). In words: In vitro BACE1 cell-based assay (Aβ40 in conditioned medium, HTRF). On the procedure: In Vitro BACE1 Cell-Based Assay The cell-based assay measures inhibition or reduction of Aβ40 in conditioned medium of test compound treated cells expressing amyloid precursor protein. Cells stably expressing Amyloid Precursor Protein (APP) were plated at a density of 45K cells/well in 384 well plates (Corning/BioCoat 354663). The test compounds were then added to cells in 22-point dose response concentrations with the starting concentration being 62.5 μM. The compounds were diluted from stock solutions in DMSO and the final DMSO concentration of the test compounds on cells was 0.625%. The cells were cultivated overnight at 37° C. and 5% CO2 in DMEM supplemented with 10% FBS. After 24 h of incubation with the test compounds, the conditioned media was collected and the Aβ40 levels were determined using HTRF (Homogeneous Time Resolved Fluorescence). […] The HTRF to detect Aβ40 was performed in 384 well plates (Costar 3658). The antibody pair that were used to detect Aβ 40 from cell supernatants were ConfAb40 antibody (Amgen in-house) and biotinylated 6E10 (BIOLEGEND). As an alternative to ConfAb40, a commercially available antibody, Anti-beta Amyloid 1-40 antibody [BDI350] from Abcam, Cambridge, Mass. 02139-1517 (Product code: ab20068), may be used in this assay. […] The conditioned media was incubated with above antibodies and Streptavidin Allophycocyanin Conjugate for 30-60 minutes at 23° C. The final readout was performed on Envision from PerkinElmer.
On the technique in general: In TR-FRET formats the signal depends on donor and acceptor labels being close together.

[5] abbreviates: Aβ40, 24 h incubation, read-out: BACE1 Cell IC50.
The mark [6] stands for this setting: 24 h, read-out: BACE1 Cell IC50 (μM).

Chain of Recombinant CatD (P07339 65-412): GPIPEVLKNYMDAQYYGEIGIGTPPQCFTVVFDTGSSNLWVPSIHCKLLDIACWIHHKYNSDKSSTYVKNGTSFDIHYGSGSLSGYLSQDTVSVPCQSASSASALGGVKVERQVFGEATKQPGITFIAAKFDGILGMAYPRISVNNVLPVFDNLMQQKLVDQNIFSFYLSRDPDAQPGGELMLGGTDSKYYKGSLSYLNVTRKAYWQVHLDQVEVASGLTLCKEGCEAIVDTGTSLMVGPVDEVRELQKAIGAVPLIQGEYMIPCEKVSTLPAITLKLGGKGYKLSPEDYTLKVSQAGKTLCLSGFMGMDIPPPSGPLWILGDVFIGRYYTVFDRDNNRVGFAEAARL
Chain of human recombinant BACE1 (P56817 46-501): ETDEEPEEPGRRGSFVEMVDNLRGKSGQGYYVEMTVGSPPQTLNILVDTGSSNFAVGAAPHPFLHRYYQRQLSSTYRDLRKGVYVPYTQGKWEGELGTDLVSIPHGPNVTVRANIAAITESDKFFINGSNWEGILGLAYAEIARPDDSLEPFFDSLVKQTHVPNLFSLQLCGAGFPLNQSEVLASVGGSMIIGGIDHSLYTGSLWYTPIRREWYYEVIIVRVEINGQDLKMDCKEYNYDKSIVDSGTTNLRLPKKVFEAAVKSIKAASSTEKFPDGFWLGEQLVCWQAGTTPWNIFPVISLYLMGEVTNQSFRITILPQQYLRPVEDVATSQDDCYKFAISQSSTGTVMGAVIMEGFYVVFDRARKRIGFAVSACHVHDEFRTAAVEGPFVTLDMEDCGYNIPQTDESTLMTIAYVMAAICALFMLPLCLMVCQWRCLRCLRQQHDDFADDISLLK

Usually IC50 stands for the concentration at which inhibition is half-maximal. Turning to `N#Cc1cnc(/C(F)=C/c2ccc(F)c([C@]34CN(c5ncc(F)cn5)C[C@H]3CSC(N)=N4)c2)cn1` [Example 111, 5-((Z)-2-(3-((4aR,7aS)-2-amino-6-(5-fluoropyrimidin-2-yl)-4,4a,5,6,7,7a-hexahydropyrrolo[3,4-d][1,3]thiazin-7a-yl)-4-fluorophenyl)-1-fluorovinyl)pyrazine-2-carbonitrile], the IC50 in assay [1] amounted to 0.32 nM; in assay [2] it was 19600 nM; in assay [3], 5.18 nM; in assay [4] (setting [5]) it was 0.000807 µM.
Consider `NC1=N[C@@]2(c3cc(/C=C(\F)c4cnc(OCC(F)(F)C(F)F)cn4)ccc3F)CN(c3ncc(F)cn3)C[C@H]2CS1` [Example 112, (4aR,7aS)-7a-(2-fluoro-5-((Z)-2-fluoro-2-(5-(2,2,3,3-tetrafluoropropoxy)pyrazin-2-yl)vinyl)phenyl)-6-(5-fluoropyrimidin-2-yl)-4,4a,5,6,7,7a-hexahydropyrrolo[3,4-d][1,3]thiazin-2-amine], for which the IC50 in assay [1] was determined as 108 nM; in assay [2], 1320 nM; in assay [3], 136 nM; in assay [4] (setting [6]) it was 0.02 µM.
On to `NC1=N[C@@]2(c3cc(/C=C(\F)c4cnc(OCC(F)F)cn4)ccc3F)CN(c3ncc(F)cn3)C[C@H]2CS1` [Example 113, (4aR,7aS)-7a-(5-((Z)-2-(5-(2,2-difluoroethoxy)pyrazin-2-yl)-2-fluorovinyl)-2-fluorophenyl)-6-(5-fluoropyrimidin-2-yl)-4,4a,5,6,7,7a-hexahydropyrrolo[3,4-d][1,3]thiazin-2-amine], for which the IC50 in assay [1] came out at 22.6 nM; in assay [2], 26600 nM; in assay [3] it was 38.1 nM; in assay [4] (setting [5]), 0.00935 µM.
For `COC[C@H](C)Oc1cnc(/C(F)=C/c2ccc(F)c([C@]34CN(c5ncc(F)cn5)C[C@H]3CSC(N)=N4)c2)cn1` [Example 114, (4aR,7aS)-7a-(2-fluoro-5-((Z)-2-fluoro-2-(5-(((S)-1-methoxypropan-2-yl)oxy)pyrazin-2-yl)vinyl)phenyl)-6-(5-fluoropyrimidin-2-yl)-4,4a,5,6,7,7a-hexahydropyrrolo[3,4-d][1,3]thiazin-2-amine], in that order: 8.96 nM, 38700 nM, 30.6 nM and 0.00257 µM.
`C#C[C@H](C)Oc1cnc(/C(F)=C/c2ccc(F)c([C@]34CN(c5ncc(F)cn5)C[C@H]3CSC(N)=N4)c2)cn1` [Example 115, (4aR,7aS)-7a-(5-((Z)-2-(5-((S)-but-3-yn-2-yloxy)pyrazin-2-yl)-2-fluorovinyl)-2-fluorophenyl)-6-(5-fluoropyrimidin-2-yl)-4,4a,5,6,7,7a-hexahydropyrrolo[3,4-d][1,3]thiazin-2-amine]: the concentration for half-maximal inhibition (IC50) in assay [1] turned out to be 1.01 nM; in assay [2], 18900 nM; in assay [3], 15.3 nM; in assay [4] (setting [5]), 0.000542 µM.
In the case of `C#CCOc1cnc(/C(F)=C/c2ccc(F)c([C@]34CN(C(=O)OC(C)(C)C)C[C@H]3CSC(N)=N4)c2)cn1` [Example 116, (4aR,7aS)-tert-butyl 2-amino-7a-(2-fluoro-5-((Z)-2-fluoro-2-(5-(prop-2-yn-1-yloxy)pyrazin-2-yl)vinyl)phenyl)-4a,5,7,7a-tetrahydropyrrolo[3,4-d][1,3]thiazine-6(4H)-carboxylate], the half-maximal inhibitory concentration (IC50) in assay [1] amounted to 2.53 nM; in assay [2], 28600 nM; in assay [3], 52 nM; in assay [4] (setting [6]) it was 0.00188 µM.
As for `CC#CCOc1cnc(/C(F)=C/c2ccc(F)c([C@]34CN(c5ncc(F)cn5)C[C@H]3CSC(N)=N4)c2)cn1` [Example 117, (4aR,7aS)-7a-(5-((Z)-2-(5-(but-2-yn-1-yloxy)pyrazin-2-yl)-2-fluorovinyl)-2-fluorophenyl)-6-(5-fluoropyrimidin-2-yl)-4,4a,5,6,7,7a-hexahydropyrrolo[3,4-d][1,3]thiazin-2-amine], the IC50 in assay [1] was 0.286 nM; in assay [2], 13200 nM; in assay [3], 2.79 nM; in assay [4] (setting [5]) it was 0.00038 µM.
For `C#CCOc1cnc(/C(F)=C/c2ccc(F)c([C@]34CN(C(=O)CC(F)(F)F)C[C@H]3CSC(N)=N4)c2)cn1` [Example 119, 1-((4aR,7aS)-2-amino-7a-(2-fluoro-5-((Z)-2-fluoro-2-(5-(prop-2-yn-1-yloxy)pyrazin-2-yl)vinyl)phenyl)-4a,5,7,7a-tetrahydropyrrolo[3,4-d][1,3]thiazin-6(4H)-yl)-3,3,3-trifluoropropan-1-one], in that order: 9.45 nM, 105000 nM, 510 nM and 0.0265 µM.
For `C#CCOc1cnc(/C(F)=C/c2ccc(F)c([C@]34CN(c5ncccn5)C[C@H]3CSC(N)=N4)c2)cn1` [Example 120, (4aR,7aS)-7a-(2-fluoro-5-((Z)-2-fluoro-2-(5-(prop-2-yn-1-yloxy)pyrazin-2-yl)vinyl)phenyl)-6-(pyrimidin-2-yl)-4,4a,5,6,7,7a-hexahydropyrrolo[3,4-d][1,3]thiazin-2-amine], in that order: 0.186 nM, 6300 nM, 34 nM and 0.00076 µM.
As to `C#CCOc1cnc(/C(F)=C/c2ccc(F)c([C@]34CN(C(=O)OC)C[C@H]3CSC(N)=N4)c2)cn1` [Example 121, (4aR,7aS)-methyl 2-amino-7a-(2-fluoro-5-((Z)-2-fluoro-2-(5-(prop-2-yn-1-yloxy)pyrazin-2-yl)vinyl)phenyl)-4a,5,7,7a-tetrahydropyrrolo[3,4-d][1,3]thiazine-6(4H)-carboxylate], the IC50 was 1.59 nM in assay [1], 47900 nM in assay [2], 258 nM in assay [3] and 0.00679 µM in assay [4] (setting [6]).
For `C#CCOc1cnc(/C(F)=C/c2ccc(F)c([C@]34CN(C(=O)CC)C[C@H]3CSC(N)=N4)c2)cn1` [Example 122, 1-((4aR,7aS)-2-amino-7a-(2-fluoro-5-((Z)-2-fluoro-2-(5-(prop-2-yn-1-yloxy)pyrazin-2-yl)vinyl)phenyl)-4a,5,7,7a-tetrahydropyrrolo[3,4-d][1,3]thiazin-6(4H)-yl)propan-1-one], the IC50 stood at 2.36 nM in assay [1], 87900 nM in assay [2], 353 nM in assay [3] and 0.0086 µM in assay [4] (setting [5]).
Consider `C#CCOc1cnc(/C(F)=C/c2ccc(F)c([C@]34CN(C(=O)OCC)C[C@H]3CSC(N)=N4)c2)cn1` [Example 123, (4aR,7aS)-ethyl 2-amino-7a-(2-fluoro-5-((Z)-2-fluoro-2-(5-(prop-2-yn-1-yloxy)pyrazin-2-yl)vinyl)phenyl)-4a,5,7,7a-tetrahydropyrrolo[3,4-d][1,3]thiazine-6(4H)-carboxylate], for which the IC50 in assay [1] was found to be 4.5 nM; in assay [2], 36500 nM; in assay [3], 214 nM; in assay [4] (setting [6]), 0.00478 µM.
`C#CCOc1cnc(/C(F)=C/c2ccc(F)c([C@]34CN(C(=O)OC(C)C)C[C@H]3CSC(N)=N4)c2)cn1` [Example 124, (4aR,7aS)-isopropyl 2-amino-7a-(2-fluoro-5-((Z)-2-fluoro-2-(5-(prop-2-yn-1-yloxy)pyrazin-2-yl)vinyl)phenyl)-4a,5,7,7a-tetrahydropyrrolo[3,4-d][1,3]thiazine-6(4H)-carboxylate]: the half-inhibitory concentration (IC50) in assay [1] came to 2.62 nM; in assay [2], 23800 nM; in assay [3] it was 92.2 nM; in assay [4] (setting [6]), 0.00269 µM.
